Data taken from patent US4140767A, “Somatostatin analogs” (Merck & Co., Inc., priority 1977, dated 1979).

Tests used:
plasma insulin = experiment: Inhibition of insulin: lowering of portal vein insulin in anesthetized rats; format: in vivo, rat; conditions: anesthetized male Sprague-Dawley rats, external jugular vein administration, portal vein blood after 5 minutes; somatostatin = 1; range in brackets
Procedure: (§1) The relative potencies of somatostatin analogs on the lowering of plasma insulin and glucagon are determined by the following method:
(§2) Analogs of somatostatin were […] to somatostatin in their ability to lower the levels of portal vein glucagon and insulin in anesthetized rats. Male Sprague-Dawley rats (Charles River CD) weighing 160-200 grams were anesthetized with urethane (150 mg./100 gm.) Saline or peptides were administered via the external jugular vein. After 5 minutes the portal vein was exposed and blood was collected via syringes containing 3 mg. EDTA and placed in chilled tubes containing 100 μl. of Trasylol (obtained from FBA Pharmaceuticals) for subsequent hormone analysis. Plasma levels of glucagon were determined by the method of Faloona, G. R., and Unger, R. H. "Glucagon" in Methods of Hormone Radioimmunoassay, eds. […] Plasma levels of insulin were determined by a modification of the procedure of Herbert, V., Lau, K. S., Gottlieb, C. […]
(§3) Doses were randomized between groups of animals (6 rats/group). Potency values were determined by four, six, or 8 point bioassays with somatostatin as the reference standard. Relative potency values were calculated by a relative potency formula for parallel line bioassays as described in Finney, D. J. Statistical Method in Biological Assay (Charles Griffin and Co., Ltd., London) Chap. […]

plasma glucagon = experiment: Inhibition of glucagon: lowering of portal vein glucagon in anesthetized rats; format: in vivo, rat; conditions: anesthetized male Sprague-Dawley rats, external jugular vein administration, portal vein blood after 5 minutes; somatostatin = 1; range in brackets
Procedure: as §1, §2, §3

growth hormone release = experiment: Inhibition of pentobarbital stimulated growth hormone release in vivo; design: species or system rat; conditions: rats, sodium pentobarbitol 17 mg./Kg., analog subcutaneously, blood after 15 minutes; somatostatin = 1; range in brackets
Procedure: Somatostatin analogs were compared to somatostain in their ability to inhibit the release of growth hormone in pentobarbital stimulated rats; a modification of the procedure of Brazeau et al. Endocrinology, 94, 184-187 (1974) was empaloyed. Rats were lightly etherized and sodium pentobarbitol (17 mg./Kg.) was injected into the exposed Saphenous vein; somatostatin or analog was simultaneously injected subcutaneously. After 15 minutes the animals were bled via the orbital sinus and blood collected for subsequent growth hormone analysis.
(§4) Doses were randomized between groups of animals (6 rats/group). Potency values were determined by four, six, or 8 point bioassays with somatostatin as the reference standard. Relative potency values were calculated by a relative potency formula for parallel line bioassays as described in Finney, D. J. Statistical Method in Biological Assay (Charles Griffin and Co., Ltd., London) Chap. 4 pp. 99-138 (1964).

Rat pituicytes = experiment: Growth hormone inhibition in vitro; format: cell-based; conditions: rat pituicytes after 4 days in culture, 4 hours incubation; somatostatin = 1; range in brackets
Procedure: Rat pituicytes were isolated according to the procedures of Vale and Grant "In vitro Pituitary Hormone Secretion Assay for Hypophysiotropic Substances" in Methods in Enzymology. Vo. XXXVII, eds. O'Malley, B. W. and Hardman, J. G. (Academic Press, Inc., New York) pp. 5-93 (1975).
After 4 days in culture, the cells were washed and incubated for 4 hours in Dulbecco-modified Eagle's medium in the presence or absence of graded doses of each analog or somatostatin. The medium was then collected for subsequent growth hormone determination by a double antibody radioimmunoassay for rat growth hormone.
as §4

C[C@H](N)C(=O)NCC(=O)N[C@H]1CSSC[C@@H](C(=O)O)NC(=O)[C@H](CO)NC(=O)[C@H]([C@@H](C)O)NC(=O)[C@H](Cc2ccccc2)NC(=O)[C@H]([C@@H](C)O)NC(=O)[C@H](CCCCN)NC(=O)[C@H](Cc2c[nH]c3ccccc23)NC(=O)[C@H](Cc2ccccc2)NC(=O)[C@H](Cc2ccccc2)NC(=O)[C@H](CC(N)=O)NC(=O)[C@H](CCCCN)NC1=O [Somatostatin]
1: Inhibition of Insulin; potency relative to somatostatin (plasma insulin) | Inhibition of Glucagon; potency relative to somatostatin (plasma glucagon) | Inhibition of Pentobarbital Stimulated Growth Hormone Release In Vivo; potency relative to somatostatin (growth hormone release) | Growth Hormone Inhibition In Vitro; potency relative to somatostatin (Rat pituicytes)
